Key:
recombinant human PAI-1 [1] = target: T1, recombinant human PAI-1 (Homo sapiens, UniProt P05121); test: biochemical; settings: for inhibition at 5 µM: read-out: Inhibition Rate of PAI-1 Activity (%), Compound Concentration 5µM; for inhibition at 10 µM: read-out: Inhibition Rate of PAI-1 Activity (%), Compound Concentration 10µM; for inhibition at 25 µM: read-out: Inhibition Rate of PAI-1 Activity (%), Compound Concentration 25µM
recombinant rat PAI-1 = target: T2, recombinant rat PAI-1 (Rattus norvegicus, UniProt P20961); test: biochemical; settings: read-out: Inhibition Rate of PAI-1 Activity (%)
T2 sequence (P20961 24-402): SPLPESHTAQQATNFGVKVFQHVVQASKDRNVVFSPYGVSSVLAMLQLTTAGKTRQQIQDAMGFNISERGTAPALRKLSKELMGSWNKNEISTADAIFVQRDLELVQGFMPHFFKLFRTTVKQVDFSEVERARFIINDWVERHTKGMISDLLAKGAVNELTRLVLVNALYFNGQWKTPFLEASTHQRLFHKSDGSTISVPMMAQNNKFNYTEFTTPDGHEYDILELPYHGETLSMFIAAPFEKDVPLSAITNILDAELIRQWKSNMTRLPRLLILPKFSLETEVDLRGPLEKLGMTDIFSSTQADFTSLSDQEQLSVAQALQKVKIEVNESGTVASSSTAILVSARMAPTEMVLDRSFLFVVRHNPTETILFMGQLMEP

recombinant human PAI-1 [2] = target: T1, recombinant human PAI-1; test: Test Example 2: Human PAI-1 Inhibitory Activity (pH 7.4 HEPES buffer, 10 minutes incubation with two-chain tPA); format: biochemical; parameters: purchased Molecular Innovations, Inc; settings: read-out: Inhibition Rate of PAI-1 Activity (%)
Method: 0.1 M HEPES, 0.1 M NaCl. 1 mM EDTA. 0.1 % Polyethylene glycol 8,000 (Hampton Research Corporation),
2 mM Dimethyldecylphoshine oxide [Apo-10] (Fluka Corporation)

recombinant human PAI-1 [3] = target: T1, recombinant human PAI-1; test: Test Example 4: Human PAI-1 Inhibitory Activity (amount of PAI-1 bound to plate-coated one-chain tPA, ELISA); format: biochemical; parameters: purchased Molecular Innovations, Inc; settings: human PAI-1 bound to tPA, read-out: Inhibition Rate of PAI-1 Activity (%); for inhibition at 0.3 µM: Compound Concentration 0.3µM; for inhibition at 1 µM: Compound Concentration 1µM; for inhibition at 3 µM: Compound Concentration 3µM
Method: 100 µl of tPA solution, where one-chain recombinant tPA (hereinafter reffered to as tPA; American diagnostica, inc.) had been diluted with Buffer A to acheive a concentration of 10 µg/ml, was added to each well of a 96-well plate (Nunc Maxisorp), and the plate was incubated for one night at 4 °C to be coated with tPA. Then, after suction of tPA solution from the 96-well plate, the plate was rinsed successively with Buffer A and Buffer B. To Buffer B, solutions of the compound according to the present invention dissolved with DMSO (final DMSO concentration: 0.2 %) and recombinant human PAI-1 (Molecular Innovations, Inc.) were added. The mixtures were blended so that the final concentrations would be 0.1 to 3.0 µM and 50 ng/ml respectively, and were incubated for 15 minutes on ice. These mixed solutions were added to the rinsed 96-well plate at 100 µl/well, and incubated for 60 minutes at room temperature. To prepare a calibration curve, PAI-1 solutions without the compound according to the present invention (solutions where the final concentrations being 100, 50, 25, 12.5, 6.25, 3.13, or 1.56 ng/ml PAI-1) were added at 100 µl/well, and the plate was incubated for 60 minutes at room temperature, as standard.
After incubation, the reaction mixture was removed by suction, and each well was rinsed with Wash Buffer. Next, anti-human PAI-1 monoclonal antibody (PROGEN Inc.) diluted with Buffer C to be 3.0 µg/ml was added to the 96-well plate at 100 µl/well, and the plate was incubated for 1 hour at room temperature. After rinsing each well with Wash Buffer, alkaline phosphatase-labeled goat anti-mouse IgG (H+L) (Jackson ImmunoResearch, Inc.) diluted with Buffer D to be 0.12 µg/ml was added at 100 µl/well, and the plate was incubated for 1 hour at room temperature. After rinsing each well with Wash Buffer, 1.0 mg/ml p-Nitrophenyl Phosphate (SIGMA) was added to the 96-well plate at 100 µl/well to start the reaction. After 30 to 60 minutes, 25 µl of 0.5 N NaOH was added to stop the reaction, and the absorbance was measured at 405 nm using a multiplate reader (GENios; TECAN G.M.B.H.).
Based on the calibration curve prepared from the standard wells, amounts of PAI-1 bound to tPA in the wells that had been treated with the compound according to the present invention were calculated, and the PAI-1 inhibition rates by the compounds according to the present invention were obtained by the following equation. [API-1InhibitionRate(%)] = [1-(amountofPAI-1boundtotPaonthewellbytreatmentwiththecompondaccordingtothepresentinvention)/(amountofPAI-1boundtotPAonthewellbytreatmentwithPAI-1solutionnotincledingthecompondaccordingtotheinvention(solution having the final concentration of 50 nb/ml PAI-1)] × 100 [formula] • <Composition of Buffer A> 0.1 M Tris-HCl, 150 mM NaCl, pH 7.7 • <Composition of Buffer B> 50 mM sodium phosphate, 0.1 M NaCl, 1 mM EDTA, pH 6.6 • <Composition of Buffer C> 50 mM sodium phosphate, 100 mM NaCl, pH 7.4 • <Composition of Buffer D> 0.01 M Tris-HCl, 0.25 M NaCl, pH 8.0 • <Compositon of Wash Buffer> 0.05 % Tween 20, 0.1 % BSA in Buffer A • <Composition of p-Nitrophenyl Phosphate solution> 1 M Diethanolamine 0.5 mM MgCl2, p-Nitrophenyl phosphate, pH 9.8

T1 sequence (P05121 24-402): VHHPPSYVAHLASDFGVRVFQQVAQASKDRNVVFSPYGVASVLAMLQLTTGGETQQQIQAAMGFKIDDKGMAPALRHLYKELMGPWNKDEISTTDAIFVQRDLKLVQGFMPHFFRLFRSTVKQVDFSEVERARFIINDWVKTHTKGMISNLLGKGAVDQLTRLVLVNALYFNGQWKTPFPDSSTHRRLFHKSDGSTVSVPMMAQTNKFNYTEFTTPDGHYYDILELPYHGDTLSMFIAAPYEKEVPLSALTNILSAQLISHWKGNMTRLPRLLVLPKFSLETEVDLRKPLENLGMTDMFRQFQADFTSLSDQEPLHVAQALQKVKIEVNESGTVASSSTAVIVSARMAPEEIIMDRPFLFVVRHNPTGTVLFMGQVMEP

Structure (SMILES) | inhibition at 5 µM (recombinant human PAI-1 [1]) | inhibition at 10 µM (recombinant human PAI-1 [1]) | inhibition at 0.3 µM (recombinant rat PAI-1) | inhibition at 1 µM (recombinant rat PAI-1) | inhibition at 3 µM (recombinant rat PAI-1) | inhibition at 10 µM (recombinant rat PAI-1) | inhibition at 0.1 µM (recombinant human PAI-1 [2]) | inhibition at 0.3 µM (recombinant human PAI-1 [2]) | inhibition at 1 µM (recombinant human PAI-1 [2]) | inhibition at 3 µM (recombinant human PAI-1 [2]) | inhibition at 0.3 µM (recombinant human PAI-1 [3]) | inhibition at 1 µM (recombinant human PAI-1 [3]) | inhibition at 3 µM (recombinant human PAI-1 [3]) | inhibition at 25 µM (recombinant human PAI-1 [1])
CC(C)(C)c1ccc(CN(C(=O)C(=O)O)c2ccc(Cl)c(-c3ccc(OC(F)(F)F)cc3)c2)cc1 [Compound 186] | 76% | 91% | 2% | 27% | 83% | 89% | 0% | 9% | 22% | > 99% | 15% | 37% | 53% | –
CC(C)(C)c1ccc(CN(C(=O)C(=O)O)c2cccc(-c3ccc(OC(F)(F)F)cc3)c2)cc1 [Compound 130] | 82% | 96% | 1% | 16% | 50% | > 99% | 0% | 2% | 18% | 84% | 1% | 3% | 15% | –
CC(C)(C)c1ccc(COc2cc(Oc3ccc(OC(F)(F)F)cc3)ccc2CCC(=O)O)cc1 [Compound 78] | 24% | 60% | 0% | 4% | 71% | 90% | 0% | 4% | 21% | 96% | 20% | 39% | 83% | 98%
CC(C)(C)c1ccc(COc2ccc(-c3ccc(OC(F)(F)F)cc3)cc2OCC(=O)O)cc1 [Compound 105] | 38% | 76% | 0% | 6% | 74% | 90% | 2% | 3% | 44% | 99% | 7% | 4% | 33% | > 99%
CC(C)(C)c1ccc(CN(C(=O)C(=O)O)c2cc(-c3ccc(OC(F)(F)F)cc3)cc(C(F)(F)F)c2)cc1 [Compound 139] | 25% | 59% | 0% | 22% | 85% | 88% | 0% | 3% | 30% | 97% | 6% | 10% | 32% | 66%
O=C(O)CCc1cc(-c2ccc(OC(F)(F)F)cc2)ccc1OCCCCc1ccccc1 [Compound 102] | 43% | 74% | 0% | 12% | 55% | 93% | 0% | 7% | 28% | 94% | 0% | 0% | 83% | 97%

Reference: patent EP2272817A1, “PAI-1 INHIBITOR” (Institute of Medicinal Molecular Design, Inc., priority 2008, dated 2009)
